Tests used:
[1] = tested on: Mice; experiment: Mouse Forced Swim Test; assay type: in vivo
Experimental: Protocol: Animals were maintained on a 12:12 LD cycle with lights on at 0600 h. Mice were placed into the testing room at least 1 h prior to the start of the test. Vehicle, amitriptyline and MA-1 were administered under one of three conditions: A) acute treatment, animals dosed 30 minutes prior to testing; B) 4 day subchronic AM treatment, with dosing occurring during the early morning period (0900-1100 h), with the final dose occurring 30 min prior to testing; and C) subchronic PM treatment with dosing occurring during the evening period (1730-1800 h, right before lights off), and the forced swim test took place the following morning. Animals were tested in the forced swim test using a modification of the protocol originally described by Porsolt et al. (1978). Mice were placed into 1 L beakers (KIMAX #14005) filled with 800 ml of water (20-22° C.) for a 7 min swim period. Animals were only scored for the last 5 minutes of the test and were assigned either a “0” if they were actively swimming or “1” if they were immobile, except for small movements needed to keep afloat. During the 5 minute scoring period, there are ten 30 sec intervals scored for a total possible score of 0-10 for each mouse. Data was reported as median (interquartile range). Each study was run independently with separate groups of naive mice. Data were analyzed using Statview (SAS, Cary, N.C.) with a Kruskal-Wallis analysis, followed by Mann-Whitney U-test with the significance level set at p<0.05.

[2] = tested on: Rats; experiment: Rat Forced Swim Test (behavioral despair test); assay type: in vivo; settings: for decrease in immobility time: dark phase
Experimental: Protocol: Animals were tested in the forced swim test using the protocol originally described by Porsolt et al (Eur. J. Pharmacol., 47, 379-391,1978). Rats were individually placed in a cylinder (Height=40 cm, Diameter=20 cm) containing 13 cm water (25° C.) for 15 minutes on the first day of the experiment (Session 1) and were then put back in the water 24 hours later for a 5 minute test (Session 2). The duration of immobility during the 5 minute test was measured. Six rats were studied per group. The test was performed blind. Session 1 and Session 2 were performed either during the light cycle, i.e. between 2.5 and 5.5 hours after lights-on, or during the dark cycle, i.e. between 2.5 and 5.5 hours after lights-off. The tests during the light cycle were therefore performed between 9:30 am and 12:30 pm, whereas the tests during the dark cycle, because of the light cycle shift, were performed between 14:30 pm and 17:30 pm.
To permit the 2 phases of the experiment (light phase and dark phase) to be performed on the same day by the same laboratory technician, the animals to be tested during the dark phase were submitted to a light cycle shift 12 days prior to the first session of the forced swim test whereby the light/dark cycle was advanced 7 hours (lights-on: 0:00 am, lights-off: 12:00 pm). The 12-day period was estimated to be sufficient for the dark-cycle animals to adjust to the shift. To habituate the rats to the light cycle shift, the dark-cycle animals were submitted to the shift 12 days prior to Session 1. To ensure otherwise similar conditions between the light-cycle and dark-cycle animals, all animals to be used in the experiment were from the same delivery batch and were placed in their experimental living cages at the same time, i.e. 12 days before Session 1.
Testing during the light phase was performed under normal laboratory illumination, and testing during the dark phase was performed under infrared illumination. MA-1, agomelatine, and melatonin were evaluated at 2 oral (p.o.) doses each, administered twice (24 hours and 1 hour before Session 2). The first administration was given immediately after Session 1. Imipramine (64 mg/kg p.o.), administered twice under the same experimental conditions, was used as reference substance.

[3] = tested on: cerebellar cGMP; experiment: Stress-induced cerebellar cGMP elevation; assay type: in vivo, Rats; settings: for activity in the stress-induced cGMP assay: data not shown, levels similar to what was observed for MA-1
Experimental: Protocol: Animals were placed into a shock chamber with a steel grid floor and shocked at 1 mA for 10 seconds. One minute following the stressor, the animals were placed into a plastic restraint tube and sacrificed by microwave irradiation (1.8 sec at 3.5 kW). The cerebellum was rapidly removed, snap frozen, and stored at −80° C. prior to the cGMP assay. Non-stressed animals were taken directly from their cages and sacrificed by microwave irradiation and tissues were processed in a similar manner. Drug dosing was performed 30-60 min prior to foot-shock stress. For the cGMP assay, the tissue was homogenized in 2 ml of 1% perchloric acid using a Brinkman Polytron at setting #5 for ˜15 sec each and placed on ice until all samples were homogenized. Samples were then placed in an 85C water bath for 5 min, centrifuged at 2500G for 15 min, and ˜0.5 ml of the supernatant was collected for analysis. Supernatants were diluted 1:20 in sodium acetate buffer according to the directions of the manufacturer of the 1251-cGMP flashplates. Diluted samples were incubated overnight in flashplate wells with 1251-cGMP, assayed on a gamma-counter plate reader, and converted to pmol cGMP/mg tissue using a standard curve generated in the same experiment.

[4] = molecular target: T1, Melatonin-2 (MT2) receptor (Homo sapiens, UniProt P49286); settings: cited from earlier work
T1 sequence (P49286 1-362): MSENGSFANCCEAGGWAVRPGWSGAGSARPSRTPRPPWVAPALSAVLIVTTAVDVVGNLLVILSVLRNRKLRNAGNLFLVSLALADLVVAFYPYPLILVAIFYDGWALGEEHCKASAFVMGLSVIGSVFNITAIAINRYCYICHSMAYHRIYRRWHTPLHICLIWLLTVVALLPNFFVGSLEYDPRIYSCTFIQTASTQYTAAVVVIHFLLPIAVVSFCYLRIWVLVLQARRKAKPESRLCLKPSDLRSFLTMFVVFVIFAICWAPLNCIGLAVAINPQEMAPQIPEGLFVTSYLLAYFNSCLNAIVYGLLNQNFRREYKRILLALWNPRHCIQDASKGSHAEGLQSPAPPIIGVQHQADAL

[5] = tested on: Rats; experiment: Modified forced swim test in rats (study not reported); assay type: in vivo, rat; settings: 5 mg/kg and 10 mg/kg
[6] = molecular target: Melatonin-1 (MT1) receptor (Homo sapiens, UniProt P48039); settings: cited from earlier work
Chain of Melatonin-1 (MT1) receptor (P48039 whole entry): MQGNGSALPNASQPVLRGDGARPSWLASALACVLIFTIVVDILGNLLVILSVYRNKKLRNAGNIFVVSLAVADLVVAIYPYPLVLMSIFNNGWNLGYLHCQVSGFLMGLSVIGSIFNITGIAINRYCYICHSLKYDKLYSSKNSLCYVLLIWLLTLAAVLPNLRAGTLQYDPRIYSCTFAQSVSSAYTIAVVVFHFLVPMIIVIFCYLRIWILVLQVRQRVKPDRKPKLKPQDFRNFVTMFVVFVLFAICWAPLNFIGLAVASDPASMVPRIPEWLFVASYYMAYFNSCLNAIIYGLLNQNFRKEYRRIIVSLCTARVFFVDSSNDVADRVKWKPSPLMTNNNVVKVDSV

[7] = Solubility of MA-1; assay type: physicochemical
[8] = condition A: acute treatment, testing 30 minute post-dose
[9] = condition B: 4-day sub-chronic AM dosing, testing 30 minutes following final dose
[10] = condition C: 4-day sub-chronic PM dosing, testing the following morning
[11] = dark cycle, 64 mg/kg p.o. −24 h and −60 min
[12] = light cycle, 64 mg/kg p.o. −24 h and −60 min
[13] = dark cycle, 1 mg/kg p.o. −24 h and −60 min
[14] = dark cycle, 10 mg/kg p.o. −24 h and −60 min
[15] = light cycle, 1 mg/kg p.o. −24 h and −60 min
[16] = light cycle, 10 mg/kg p.o. −24 h and −60 min
[17] = dark cycle, 50 mg/kg p.o. −24 h and −60 min
[18] = light cycle, 50 mg/kg p.o. −24 h and −60 min

SMILES | activity in mouse forced swim model [1, 8] | activity in mouse forced swim model [1, 9] | activity in mouse forced swim model [1, 10] | DURATION OF IMMOBILITY % change from control [2, 14] | DURATION OF IMMOBILITY mean ± s.e.m. [2, 14] | decrease in immobility time ([2]; 10 mg/kg) | DURATION OF IMMOBILITY % change from control [2, 16] | DURATION OF IMMOBILITY mean ± s.e.m. [2, 16] | activity in the stress-induced cGMP assay [3] | DURATION OF IMMOBILITY % change from control [2, 17] | DURATION OF IMMOBILITY mean ± s.e.m. [2, 17] | DURATION OF IMMOBILITY % change from control [2, 18] | DURATION OF IMMOBILITY mean ± s.e.m. [2, 18] | other results
CN(C)CCC=C1c2ccccc2CCc2ccccc21 [Amitriptyline] | active | active | did not show activity | – | – | – | – | – | – | – | – | – | – | –
CN(C)CCCN1c2ccccc2CCc2ccccc21 [Imipramine] | – | – | – | – | – | – | – | – | – | – | – | – | – | DURATION OF IMMOBILITY % change from control [2, 11]: −70%; DURATION OF IMMOBILITY mean ± s.e.m. [2, 11]: 63.0 ± 11.1 s; DURATION OF IMMOBILITY % change from control [2, 12]: −71%; DURATION OF IMMOBILITY mean ± s.e.m. [2, 12]: 49.5 ± 10.6 s
CCC(=O)NC[C@@H]1C[C@H]1c1cccc2c1CCO2 [MA-1, (1R-trans)-N-[[2-(2,3-dihydro-4-benzofuranyl)cyclopropyl]methyl]propanamide] | did not demonstrate activity | did not demonstrate activity | did not demonstrate activity | −41% | 124.8 ± 18.8 s | 41% | −25% | 126.3 ± 26.9 NS s | – | – | – | – | – | attenuation of shock-induced increase in cerebellar cGMP levels ([3]; rats, electric shock 1 mA 10 s, doses of 0.1-10 mg/kg, dosed 30-60 min prior to foot-shock, no dose-responsiveness): ~50%; affinity [4]: high affinity; effects on immobility, swimming, or climbing statistically different from vehicle [5]: did not show effects; affinity [6]: high affinity; DURATION OF IMMOBILITY % change from control [2, 13]: −37%; DURATION OF IMMOBILITY mean ± s.e.m. [2, 13]: 133.0 ± 6.6 s; decrease in immobility time ([2]; 1 mg/kg): 37%; DURATION OF IMMOBILITY % change from control [2, 15]: −14%; DURATION OF IMMOBILITY mean ± s.e.m. [2, 15]: 145.3 ± 26.0 NS s; effect of pH on aqueous solubility [7]: practically unaffected by pH; solubility ([7]; in 95% ethanol, methanol, acetonitrile, ethyl acetate, isopropanol, polyethylene glycols (PEG-300 and PEG-400)): very soluble or freely soluble; solubility ([7]; in water): only slightly soluble; native pH of a saturated solution in water ([7]; saturated solution in water): 8.5
COc1ccc2[nH]cc(CCNC(C)=O)c2c1 [Melatonin, melatonin] | – | – | – | −37% | 132.8 ± 16.5 s | – | −40% | 101.3 ± 18.8 s | shown activity | −21% | 166.8 ± 16.6 s | 0% | 167.7 ± 10.8 NS s | –
COc1ccc2cccc(CCNC(C)=O)c2c1 [agomelatine] | – | – | – | −60% | 84.8 ± 8.2 s | 60% | −42% | 97.8 ± 13.5 s | shown activity | −33% | 140.2 ± 19.1 s | +13% | 191.0 ± 9.4 NS s | decrease in immobility time ([2]; 50 mg/kg): 33%

Source: patent US20090209638A1, “TREATMENT FOR DEPRESSIVE DISORDERS” (priority 2006, published 2009)
